Source: patent publication US20110250292A1, “COMPOSITION FOR IMPROVING RA[…] CANCER” (CHONJISAN CO., LTD., priority 2008, published 2011)

Key:
[1] = system: Meth-A tumor (WEHI164 fibrosarcoma); test: Irradiation and tetra-arsenic oxide treatment on Balb/c mouse having Meth-A tumor (tumor volume); assay type: in vivo; conditions: 8 mg/kg once into abdominal cavity 1 hour after single local irradiation; 6 mice; FIG. 1; *p<0.05
Procedure: (§1) Balb/c, and Balb/c, nu/nu female mice (weight: 20 to 25 g, age: 6 to 8 weeks) were obtained from Orient bio (Taejun, Korea), and WEHI164 tumor cell line (derived from Meth-A-induced fibrosarcoma) and FaDu tumor cell line (derived from human nasopharyngeal squamous cell carcinoma) were bought from KCCB (Seoul, Korea). WEHI164 cells (5×10^5) or FaDu cells (1×10^6) in MEM 50 μl were hypodermically injected into a rear leg of a Balb/c or Balb/c nu/nu mouse, and then the growth of a tumor was observed.
(§2) Tetra-arsenic oxide obtained from Genew Science (Seoul, Korea) was placed in distilled water, and continuously stilled and dissolved. The resultant liquid was stored as a stock liquid at 4° C. The stock liquid was diluted with a phosphoric acid buffer solution in such a manner as to have a final concentration of 0.5 mg/ml.
In order to minimize acute arsenic toxicity, dextrose was added with a final concentration of 5% (F. X. Reichl, H. Kreppel, L. Szinicz, B. Fichtl, and W. Forth, Reduction of arsenic trioxide toxicity in mice by repeated treatment with glucose. Arch Toxicol Suppl 14 (1991) 225-7).
In irradiation, a cobalt-60 unit (Theratron 780; AECL, Kanata, Ontarino, Canada) was used. […]
A change in the tumor size was measured by calipers twice to three times per week. A tumor volume was calculated by a×b×h/2 (a=minimum length, b=maximum length, h=height). […]

[2] = system: human nasopharyngeal squamous cell carcinoma (FaDu); test: Single irradiation and tetra-arsenic oxide treatment on Balb/c nu/nu mouse having human nasopharyngeal squamous cell carcinoma (tumor volume); assay type: in vivo; conditions: FIGS. 2 and 3
Procedure: as §1, §2
(§3) In order to minimize acute arsenic toxicity, dextrose was added with a final concentration of 5% (F. X. Reichl, H. Kreppel, L. Szinicz, B. Fichtl, and W. Forth, Reduction of arsenic trioxide toxicity in mice by repeated treatment with glucose. Arch Toxicol Suppl 14 (1991) 225-7). […]
(§4) A tumor volume was measured twice to three times per week. The tumor size was measured by calipers, and the tumor volume was calculated by a×b×h/2 (a=minimum length, b=maximum length, h=height). […]

[3] = system: human nasopharyngeal squamous cell carcinoma (FaDu); test: Fractional irradiation and tetra-arsenic oxide treatment on Balb/c nu/nu mouse having human nasopharyngeal squamous cell carcinoma (tumor volume); assay type: in vivo; conditions: 8 mg/kg through abdominal cavity; fractional irradiation 12 Gy 4 times per week for 4 weeks; FIG. 3
Procedure: as §1, §2, §3, §4

[4] = M. J. Park et al., Int. J. Oncol. 22, 2003; cited from earlier work
[5] = oral dosage form; Z. X. Shen et al., Blood 89 (1997); cited from earlier work

Row | Compound | growth of tumor (tumor volume), combination with irradiation compared to irradiation alone [1] | tumor growth inhibition, separate treatment of tetra-arsenic oxide compared to control group ([2]; 8 mg/kg once through abdominal cavity, no irradiation) | tumor growth, combination with irradiation compared to irradiation alone ([2]; 8 mg/kg through abdominal cavity plus local irradiation) | radiosensitizer effect on tumor volume with fractional irradiation [3] | toxicity on oral administration [4] | gastrointestinal toxicity on oral administration [5]
1 | O1[As]2O[As]3O[As]1O[As](O2)O3 [tetra-arsenic oxide, 2,4,6,8,9,10-Hexaoxa-1,3,5,7-tetraarsatricyclo [3.3.1.1^3,7]decane] | significantly reduced the growth of tumor | hardly has an effect on tumor growth inhibition | significantly reducing tumor growth | significant effect as a radiosensitizer | very low toxicity | –
2 | arsenic trioxide | – | – | – | – | – | serious gastrointestinal toxicity
